We go through 3 compounds from US10758516B2, “Methods and compositions for the treatment of gliomas” (University of Cincinnati, priority 2017, dated 2020).

The target of assay [1] is T1, EP2 receptor (Homo sapiens, UniProt P43116).
T1 construct: endogenous in cells; host or cells: SF767 human glioblastoma cells
Put plainly: PGE2-mediated cAMP signaling in LN229 glioma cells. In kind it is cell-based. As to conditions: for PGE2-promoted cAMP synthesis: antagonist 1 μM and 10 μM, n=5. The source says: (§1) FIG. 1. Bar graph showing PGE2 mediated cAMP signaling via EP2 receptor in human malignant glioma cells LN229 (top) and SF767 (bottom).
(§2) (n=5, *P<0.05; ***P<0.001, one-way ANOVA and post-hoc Bonferroni test). Data are shown as mean+SEM.

Assay [2] deals with T1, EP2 receptor. Put plainly: PGE2-mediated cAMP signaling in SF767 glioma cells. In kind it is cell-based. As to conditions: for PGE2-promoted cAMP synthesis: antagonist 1 μM and 10 μM, n=5.
Source text: as §1, §2

The test system of the next assay is human GBM cells SF767. Put plainly: Cell invasion of COX-2-overexpressing SF767 cells. Format: cell-based. As to conditions: 10 μM, measured after 48 h, n=4, P<0.01 vs control.
For the next assay, the system named is GBM cells LN229. Put plainly: Wound closure (migration) of COX-2-overexpressing LN229 cells. In kind it is cell-based, human. The following applies: 10 μM, n=3, compared with COX-2 overexpression group.
Assay [3] has as its system intracranial tumors formed by human GBM cells LN229. The assay is described as follows: Intracranial (orthotopic) tumor xenograft in athymic nude mice. In kind it is in vivo. The source says:
FIG. 8. Graph showing that the survival rate of mice harboring intracranial tumors derived from human GBM cells LN229 receiving TG6-10-1 is greater than the survival rate of mice receiving vehicle only.
Data are shown as mean±SEM.
Survival rates of mice that harbored intracranial tumors derived from human GBM cells LN229 after receiving vehicle (n=20) or TG6-10-1 (n=28) for 28 days (P=2.835E-4 Kaplan-Meier survival analysis with post-hoc log-rank test).

Assay [4] relates to flank tumors formed by human GBM cells SF767. The assay is described as follows: Flank (subcutaneous) tumor xenograft in athymic nude mice. In kind it is in vivo. As to conditions: 10 mg/kg, p.o., b.i.d.; measured 4 weeks after xenograft surgery; n=7, P<0.05. The source says: FIG. 4. Bar graph comparing flank tumor size in athymic nude mice treated with vehicle versus mice treated with TG6-10-1 measured 4 weeks after xenograft surgery.
Data are shown as mean+SEM.

Setting [5] is: concentration-dependent, forskolin 100 μM.

T1 sequence (P43116 whole entry): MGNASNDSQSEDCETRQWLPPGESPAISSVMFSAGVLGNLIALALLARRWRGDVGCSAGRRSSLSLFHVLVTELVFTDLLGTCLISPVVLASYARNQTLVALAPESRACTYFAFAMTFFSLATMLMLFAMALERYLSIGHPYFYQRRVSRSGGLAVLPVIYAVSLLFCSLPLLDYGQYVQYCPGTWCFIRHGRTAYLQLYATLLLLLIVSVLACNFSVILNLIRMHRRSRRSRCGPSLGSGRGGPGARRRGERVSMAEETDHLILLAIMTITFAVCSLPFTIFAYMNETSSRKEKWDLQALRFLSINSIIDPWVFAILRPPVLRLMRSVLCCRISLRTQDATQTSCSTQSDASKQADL

For the compound `COc1cc(/C=C/C(=O)NCCn2c(C)cc3ccccc32)cc(OC)c1OC` [TG4-155], the “PGE2-promoted cAMP synthesis” value on EP2 receptor [1] and at EP2 receptor [2] was “largely blocked” throughout. Also, the “cell invasion increased by COX-2 overexpression” value in the assay on human GBM cells SF767 was “attenuated”. The “wound closure increased by COX-2 overexpression” value in the assay with GBM cells LN229 is “attenuated”.
As for `CCCCC[C@H](O)/C=C/[C@H]1[C@H](O)CC(=O)[C@@H]1C/C=C\CCCC(=O)O` [PGE2, Prostaglandin E2, reference compound], the cAMP levels result on EP2 receptor [1] (setting [5]) and on EP2 receptor [2] (setting [5]) was “increases cAMP levels” throughout.
`COc1cc(/C=C/C(=O)NCCn2c(C(F)(F)F)cc3ccccc32)cc(OC)c1OC` [TG6-10-1]: the “growth of intracranial tumors” value in assay [3] (10 mg/kg, p.o., b.i.d., bioluminescence weekly, n=7, P<0.01) is “reduced the growth”. Moreover, the “survival of mice harboring intracranial tumors” value in assay [3] (treatment for 28 days, vehicle n=20, TG6-10-1 n=28, P=2.835E-4, Kaplan-Meier, log-rank) is on record as “improved survival”. Further, the “PGE2-promoted cAMP synthesis” value on EP2 receptor [1] and at EP2 receptor [2] was “largely blocked” in each case. In addition, in assay [4], the “growth of flank tumors” value was “reduced the growth”. In addition, the “cell invasion increased by COX-2 overexpression” value with human GBM cells SF767 was “attenuated”. The “wound closure increased by COX-2 overexpression” value in the assay with GBM cells LN229 is reported as “attenuated”.
